# What was measured:
# [1] = The drug is tested on Clostridium symbiosum strain: ATCC14940 for biotransformation. The drug concentrations were measured before and after a 12-h incubation by liquid-chromatography-coupled mass spectrometry (LC–MS); settings: 2 µM
# [2] = The drug is tested on Clostridium scindens strain: ATCC35704 for biotransformation. The drug concentrations were measured before and after a 12-h incubation by liquid-chromatography-coupled mass spectrometry (LC–MS); settings: 2 µM
# [3] = The drug is tested on Clostridium sporogenes strain: ATCC15579 for biotransformation. The drug concentrations were measured before and after a 12-h incubation by liquid-chromatography-coupled mass spectrometry (LC–MS); settings: 2 µM
# [4] = The drug is tested on Clostridium spiroforme strain: DSM1552 for biotransformation. The drug concentrations were measured before and after a 12-h incubation by liquid-chromatography-coupled mass spectrometry (LC–MS); settings: thomasclavelia spiroformis, 2 µM
# [5] = The drug is tested on Clostridium asparagiforme strain: DSM15981 for biotransformation. The drug concentrations were measured before and after a 12-h incubation by liquid-chromatography-coupled mass spectrometry (LC–MS); type: ADME; design: dose 2 uM, timepoint 0 vs 12 hours; settings: enterocloster asparagiformis, 2 µM
# [6] = clostridioides difficile, 12 h, 2 µM
# [7] = The drug is tested on Clostridium ramosum strain: DSM1402 for biotransformation. The drug concentrations were measured before and after a 12-h incubation by liquid-chromatography-coupled mass spectrometry (LC–MS); settings: thomasclavelia ramosa, 2 µM
# [8] = The drug is tested on Clostridium hathewayi strain: DSM13479 for biotransformation. The drug concentrations were measured before and after a 12-h incubation by liquid-chromatography-coupled mass spectrometry (LC–MS); settings: hungatella hathewayi, 2 µM
# [9] = enterocloster bolteae, 12 h, 2 µM
# [10] = akkermansia muciniphila, 12 h, 2 µM
# Description: The drug is tested on Akkermansia muciniphila strain: ATCC BAA-835 for biotransformation. The drug concentrations were measured before and after a 12-h incubation by liquid-chromatography-coupled mass spectrometry (LC–MS)
# [11] = The drug is tested on Enterobacter cancerogenus strain: ATCC35316 for biotransformation. The drug concentrations were measured before and after a 12-h incubation by liquid-chromatography-coupled mass spectrometry (LC–MS); settings: 2 µM
# [12] = The drug is tested on Bacteroides xylanisolvens strain: DSM18836 for biotransformation. The drug concentrations were measured before and after a 12-h incubation by liquid-chromatography-coupled mass spectrometry (LC–MS); settings: 2 µM
# [13] = The drug is tested on Blautia hansenii strain: DSM20583 for biotransformation. The drug concentrations were measured before and after a 12-h incubation by liquid-chromatography-coupled mass spectrometry (LC–MS); settings: 2 µM
# [14] = The drug is tested on Ruminococcus torques strain: ATCC27756 for biotransformation. The drug concentrations were measured before and after a 12-h incubation by liquid-chromatography-coupled mass spectrometry (LC–MS); type: ADME; design: dose 2 uM, timepoint 0 vs 12 hours; settings: 2 µM
# [15] = The drug is tested on Bacteroides ovatus strain: ATCC8483 for biotransformation. The drug concentrations were measured before and after a 12-h incubation by liquid-chromatography-coupled mass spectrometry (LC–MS); settings: 2 µM
# [16] = The drug is tested on Bacteroides finegoldii strain: DSM17565 for biotransformation. The drug concentrations were measured before and after a 12-h incubation by liquid-chromatography-coupled mass spectrometry (LC–MS); settings: 2 µM
# [17] = The drug is tested on Salmonella typhimurium strain: LT2 for biotransformation. The drug concentrations were measured before and after a 12-h incubation by liquid-chromatography-coupled mass spectrometry (LC–MS); settings: salmonella enterica subsp. enterica, 2 µM
# [18] = The drug is tested on Subdoligranulum variabile strain: DSM15176 for biotransformation. The drug concentrations were measured before and after a 12-h incubation by liquid-chromatography-coupled mass spectrometry (LC–MS); settings: 2 µM
# [19] = The drug is tested on Eubacterium ventriosum strain: ATCC27560 for biotransformation. The drug concentrations were measured before and after a 12-h incubation by liquid-chromatography-coupled mass spectrometry (LC–MS); type: ADME; design: dose 2 uM, timepoint 0 vs 12 hours; settings: 2 µM
# [20] = bacteroides thetaiotaomicron, 12 h, 2 µM
# Description: The drug is tested on Bacteroides thetaiotaomicron strain: 3731 for biotransformation. The drug concentrations were measured before and after a 12-h incubation by liquid-chromatography-coupled mass spectrometry (LC–MS)
# [21] = bacteroides fragilis, 12 h, 2 µM
# Description: The drug is tested on Bacteroides fragilis strain: 3397 (T10) for biotransformation. The drug concentrations were measured before and after a 12-h incubation by liquid-chromatography-coupled mass spectrometry (LC–MS)
# [22] = The drug is tested on Alistipes indistinctus strain: DSM22520 for biotransformation. The drug concentrations were measured before and after a 12-h incubation by liquid-chromatography-coupled mass spectrometry (LC–MS); settings: 2 µM
# [23] = The drug is tested on Bacteroides dorei strain: DSM17855 for biotransformation. The drug concentrations were measured before and after a 12-h incubation by liquid-chromatography-coupled mass spectrometry (LC–MS); settings: phocaeicola dorei, 2 µM
# [24] = The drug is tested on Bacteroides fragilis strain: HMW615 for biotransformation. The drug concentrations were measured before and after a 12-h incubation by liquid-chromatography-coupled mass spectrometry (LC–MS); settings: 2 µM
# [25] = The drug is tested on Collinsella intestinalis strain: DSM13280 for biotransformation. The drug concentrations were measured before and after a 12-h incubation by liquid-chromatography-coupled mass spectrometry (LC–MS); settings: 2 µM
# [26] = parabacteroides johnsonii, 12 h, 2 µM
# Description: The drug is tested on Parabacteroides johnsonii strain: DSM18315 for biotransformation. The drug concentrations were measured before and after a 12-h incubation by liquid-chromatography-coupled mass spectrometry (LC–MS)
# [27] = The drug is tested on Bacteroides pectinophilus strain: ATCC43243 for biotransformation. The drug concentrations were measured before and after a 12-h incubation by liquid-chromatography-coupled mass spectrometry (LC–MS); settings: 2 µM
# [28] = The drug is tested on Clostridium sp. strain: fecal isolate for biotransformation. The drug concentrations were measured before and after a 12-h incubation by liquid-chromatography-coupled mass spectrometry (LC–MS); settings: 2 µM
# [29] = The drug is tested on Escherichia coli strain: BW25113 for biotransformation. The drug concentrations were measured before and after a 12-h incubation by liquid-chromatography-coupled mass spectrometry (LC–MS); settings: 2 µM
# [30] = The drug is tested on Ruminococcus lactaris strain: ATCC29176 for biotransformation. The drug concentrations were measured before and after a 12-h incubation by liquid-chromatography-coupled mass spectrometry (LC–MS); settings: 2 µM
# [31] = The drug is tested on Edwardsiella tarda strain: ATCC23685 for biotransformation. The drug concentrations were measured before and after a 12-h incubation by liquid-chromatography-coupled mass spectrometry (LC–MS); settings: 2 µM
# [32] = The drug is tested on Bacteroides fragilis strain: HMW610 for biotransformation. The drug concentrations were measured before and after a 12-h incubation by liquid-chromatography-coupled mass spectrometry (LC–MS); settings: 2 µM
# [33] = The drug is tested on Eggerthella lenta strain: ATCC25559 for biotransformation. The drug concentrations were measured before and after a 12-h incubation by liquid-chromatography-coupled mass spectrometry (LC–MS); settings: 2 µM
# [34] = bacteroides thetaiotaomicron, 12 h, 2 µM; remark: listed apart in the source
# Description: The drug is tested on Bacteroides thetaiotaomicron strain: 7330 for biotransformation. The drug concentrations were measured before and after a 12-h incubation by liquid-chromatography-coupled mass spectrometry (LC–MS)
# [35] = The drug is tested on Bacteroides caccae strain: ATCC43185 for biotransformation. The drug concentrations were measured before and after a 12-h incubation by liquid-chromatography-coupled mass spectrometry (LC–MS); settings: 2 µM
# [36] = The drug is tested on Enterococcus faecalis strain: V583 for biotransformation. The drug concentrations were measured before and after a 12-h incubation by liquid-chromatography-coupled mass spectrometry (LC–MS); settings: 2 µM
# [37] = The drug is tested on Bacteroides uniformis strain: ATCC8492 for biotransformation. The drug concentrations were measured before and after a 12-h incubation by liquid-chromatography-coupled mass spectrometry (LC–MS); settings: 2 µM
# [38] = bacteroides eggerthii, 12 h, 2 µM
# Description: The drug is tested on Bacteroides eggerthii strain: DSM20697 for biotransformation. The drug concentrations were measured before and after a 12-h incubation by liquid-chromatography-coupled mass spectrometry (LC–MS)
# [39] = The drug is tested on Bifidobacterium longum subsp. Infantis strain: CCUG52486 for biotransformation. The drug concentrations were measured before and after a 12-h incubation by liquid-chromatography-coupled mass spectrometry (LC–MS); settings: 2 µM
# [40] = bacteroides thetaiotaomicron, 12 h, 2 µM; remark: listed apart in the source
# Description: The drug is tested on Bacteroides thetaiotaomicron strain: VPI-5482 for biotransformation. The drug concentrations were measured before and after a 12-h incubation by liquid-chromatography-coupled mass spectrometry (LC–MS)
# [41] = The drug is tested on Collinsella aerofaciens strain: ATCC25986 for biotransformation. The drug concentrations were measured before and after a 12-h incubation by liquid-chromatography-coupled mass spectrometry (LC–MS); settings: 2 µM
# [42] = bacteroides intestinalis, 12 h, 2 µM
# Description: The drug is tested on Bacteroides intestinalis strain: DSM17393 for biotransformation. The drug concentrations were measured before and after a 12-h incubation by liquid-chromatography-coupled mass spectrometry (LC–MS)
# [43] = The drug is tested on Eubacterium hallii strain: DSM3353 for biotransformation. The drug concentrations were measured before and after a 12-h incubation by liquid-chromatography-coupled mass spectrometry (LC–MS); settings: anaerobutyricum hallii, 2 µM
# [44] = The drug is tested on Coprococcus comes strain: ATCC27758 for biotransformation. The drug concentrations were measured before and after a 12-h incubation by liquid-chromatography-coupled mass spectrometry (LC–MS); type: ADME; design: dose 2 uM, timepoint 0 vs 12 hours; settings: 2 µM
# [45] = The drug is tested on Providencia stuartii strain: ATCC25827 for biotransformation. The drug concentrations were measured before and after a 12-h incubation by liquid-chromatography-coupled mass spectrometry (LC–MS); settings: 2 µM
# [46] = The drug is tested on Anaerotruncus colihominis strain: DSM17241 for biotransformation. The drug concentrations were measured before and after a 12-h incubation by liquid-chromatography-coupled mass spectrometry (LC–MS); settings: 2 µM
# [47] = The drug is tested on Ruminococcus gnavus strain: ATCC29149 for biotransformation. The drug concentrations were measured before and after a 12-h incubation by liquid-chromatography-coupled mass spectrometry (LC–MS); settings: mediterraneibacter gnavus, 2 µM
# [48] = bacteroides stercoris, 12 h, 2 µM
# Description: The drug is tested on Bacteroides stercoris strain: ATCC43183 for biotransformation. The drug concentrations were measured before and after a 12-h incubation by liquid-chromatography-coupled mass spectrometry (LC–MS)
# [49] = The drug is tested on Bacteroides fragilis strain: ATCC43859 for biotransformation. The drug concentrations were measured before and after a 12-h incubation by liquid-chromatography-coupled mass spectrometry (LC–MS); settings: 2 µM
# [50] = The drug is tested on Bacteroides sp. WH2 strain: WH2 for biotransformation. The drug concentrations were measured before and after a 12-h incubation by liquid-chromatography-coupled mass spectrometry (LC–MS); settings: bacteroides sp. wh2, 12 h, 2 µM
# [51] = The drug is tested on Bifidobacterium ruminantium strain: fecal isolate for biotransformation. The drug concentrations were measured before and after a 12-h incubation by liquid-chromatography-coupled mass spectrometry (LC–MS); settings: 2 µM
# [52] = bacteroides fragilis, 12 h, 2 µM; remark: listed apart in the source
# Description: The drug is tested on Bacteroides fragilis strain: DS-208 for biotransformation. The drug concentrations were measured before and after a 12-h incubation by liquid-chromatography-coupled mass spectrometry (LC–MS)
smiles,measurement,setting,value
Br.NC(=O)C(c1ccccc1)(c1ccccc1)[C@@H]1CCN(CCc2ccc3c(c2)CCO3)C1 [DARIFENACIN HYDROBROMIDE],Bacterial Biotransformation,[1],Compound NOT metabolized
same,Bacterial Biotransformation,[2],Compound NOT metabolized
same,Bacterial Biotransformation,[3],Compound NOT metabolized
same,Bacterial Biotransformation,[4],Compound NOT metabolized
same,Bacterial Biotransformation,[5],Compound NOT metabolized
same,Bacterial Biotransformation,[6],Compound NOT metabolized
same,Bacterial Biotransformation,[7],Compound NOT metabolized
same,Bacterial Biotransformation,[8],Compound NOT metabolized
same,Bacterial Biotransformation,[9],Compound NOT metabolized
COC(=O)C(c1ccccc1)C1CCCCN1 (centres undefined) [METHYLPHENIDATE],Bacterial Biotransformation,[10],Compound NOT metabolized
same,Bacterial Biotransformation,[11],Compound NOT metabolized
same,Bacterial Biotransformation,[12],Compound NOT metabolized
same,Bacterial Biotransformation,[13],Compound metabolized
same,Bacterial Biotransformation,[14],Compound NOT metabolized
same,Bacterial Biotransformation,[15],Compound NOT metabolized
same,Bacterial Biotransformation,[16],Compound NOT metabolized
same,Bacterial Biotransformation,[17],Compound NOT metabolized
same,Bacterial Biotransformation,[18],Compound NOT metabolized
same,Bacterial Biotransformation,[19],Compound NOT metabolized
same,Bacterial Biotransformation,[20],Compound NOT metabolized
same,Bacterial Biotransformation,[21],Compound NOT metabolized
same,Bacterial Biotransformation,[22],Compound NOT metabolized
same,Bacterial Biotransformation,[23],Compound NOT metabolized
same,Bacterial Biotransformation,[24],Compound NOT metabolized
same,Bacterial Biotransformation,[25],Compound NOT metabolized
same,Bacterial Biotransformation,[26],Compound metabolized
same,Bacterial Biotransformation,[27],Compound NOT metabolized
same,Bacterial Biotransformation,[28],Compound metabolized
same,Bacterial Biotransformation,[29],Compound metabolized
same,Bacterial Biotransformation,[30],Compound NOT metabolized
same,Bacterial Biotransformation,[31],Compound NOT metabolized
same,Bacterial Biotransformation,[32],Compound NOT metabolized
same,Bacterial Biotransformation,[3],Compound metabolized
same,Bacterial Biotransformation,[33],Compound metabolized
same,Bacterial Biotransformation,[34],Compound NOT metabolized
same,Bacterial Biotransformation,[35],Compound NOT metabolized
same,Bacterial Biotransformation,[36],Compound NOT metabolized
same,Bacterial Biotransformation,[37],Compound NOT metabolized
same,Bacterial Biotransformation,[38],Compound NOT metabolized
same,Bacterial Biotransformation,[39],Compound NOT metabolized
same,Bacterial Biotransformation,[40],Compound NOT metabolized
same,Bacterial Biotransformation,[41],Compound NOT metabolized
same,Bacterial Biotransformation,[42],Compound NOT metabolized
same,Bacterial Biotransformation,[43],Compound NOT metabolized
same,Bacterial Biotransformation,[44],Compound NOT metabolized
same,Bacterial Biotransformation,[45],Compound NOT metabolized
same,Bacterial Biotransformation,[46],Compound NOT metabolized
same,Bacterial Biotransformation,[47],Compound NOT metabolized
same,Bacterial Biotransformation,[48],Compound NOT metabolized
same,Bacterial Biotransformation,[49],Compound NOT metabolized
same,Bacterial Biotransformation,[50],Compound NOT metabolized
same,Bacterial Biotransformation,[9],Compound NOT metabolized
same,Bacterial Biotransformation,[51],Compound metabolized
same,Bacterial Biotransformation,[52],Compound NOT metabolized

# — ChEMBL document CHEMBL5303573, “Mapping human microbiome drug metabolism by gut bacteria and their genes” (Nature, 2019)
